Like-named read-outs stand apart in the source and are kept apart here.
Legend:
GSPT1 = GSPT1 (Homo sapiens (Human), UniProt P15170+Q96SW2); assay: Immunofluorescence assay for GSPT1 degradation in CAL-Si cells; type: cell-based; details: CAL-Si cells
Protocol: The compounds were tested in an immunofluorescence assay for their activity to bind to degrade GSPT1. CAL-Si cells were purchased from DSMZ (cat. Number ACC302), sub-cultured in 90% Dulbecco's MEM (4.5 g/L glucose, Gibco 11965)+10% heat inactivated FBS (BioConcept, 2-01F136I) and incubated at 37° C., 5% CO2. For the assay, imaging microtiterplate Cell Carrier 96 Ultra (Perkin Elmer 6055302) were pre-coated with Fibronectin (Sigma F085, 30 μl at 0.2 μg/ml) in PBS (100 μl, Gibco 14190) for 45 min at room temperature, rinsed with PBS and CAL-Si cells (30K cells/well) were plated and let to adhere overnight. Cells were treated with compounds typically using a serial dilution ranging from 30 μM to 0.1 nM for 6 hours. Compounds were stored at 10 mM DMSO stocks. Vehicle (DMSO), positive (CC-885, 10 μM) and rescue controls (positive control plus 0.2 μM bortezomib) were also included at this stage. Cells were subsequently rinsed with PBS and fixed in 10% Formalin solution (50 μl, Sigma HT5011)) for 20 mins at room temperature. Following three consecutive PBS washes (100 μl), cells were permeabilized in 0.1% Triton X-100 in PBS (Sigma 93443, 50 μl) for 15 mins at room temperature. Following three further PBS washes, 50 μl blocking buffer (1% BSA, Sigma A4503, in PBS) was added for 45 min for signal-to-noise reduction.
Primary antibody (human GSPT1, Sigma HPA052488) was diluted in blocking buffer (dil.1/300, 35 μl/well) and incubated with the cells overnight at 4° C. After three PBS washes, Alexa-fluor 488 coupled secondary antibodies (Invitrogen, A32731, dil.1/1000), Alexa-fluor 647-Phalloïdin (Invitrogen, A22287, dil.1/200) and DAPI (Thermo, #62248, dil.1/1000) were diluted in blocking buffer and incubated with the samples for 2 hours at room temperature. After three final PBS washes, samples were conserved in 100 μl PBS in the dark, until measurement. Image acquisition was performed on the Operetta High-Content Imager (Perkin-Elmer). Fluorescence intensity of Alexa-Fluor 488 (GSPT1), Alexa-Fluor 647 (Actin) and DAPI (Nucleus) were measured. For the determination of GSPT1 DC50 values, a custom algorithm implemented in the PerkinElmer image analysis software Harmony-Acapella® was developed. After user-defined setting of adjustment parameters, the analysis was run identically without human intervention for all image fields. DAPI staining of the nuclei was used to determine the location of cells using standard nuclei detection modules. Segmentation artifacts were removed by threshold-based filters for area, roundness and intensity. The outline of the cells was determined analogously from the sum of the normalized, smoothed DAPI and Actin channel, starting from each nucleus. The Alexa-Fluor 488 (GSPT1) signal intensity in each cell was finally measured, in order to obtain a Mean intensity per cell. GSPT1 degradation (DC50) was calculated after normalization to controls and data import in CDD vault Database, using non-linear regression.

[1] = target: Full length wild-type cereblon CRBN (Homo sapiens (Human), UniProt Q96SW2); assay: Fluorescence polarization (FP) assay, cereblon binding
Chain of Full length wild-type cereblon CRBN (Q96SW2 whole entry): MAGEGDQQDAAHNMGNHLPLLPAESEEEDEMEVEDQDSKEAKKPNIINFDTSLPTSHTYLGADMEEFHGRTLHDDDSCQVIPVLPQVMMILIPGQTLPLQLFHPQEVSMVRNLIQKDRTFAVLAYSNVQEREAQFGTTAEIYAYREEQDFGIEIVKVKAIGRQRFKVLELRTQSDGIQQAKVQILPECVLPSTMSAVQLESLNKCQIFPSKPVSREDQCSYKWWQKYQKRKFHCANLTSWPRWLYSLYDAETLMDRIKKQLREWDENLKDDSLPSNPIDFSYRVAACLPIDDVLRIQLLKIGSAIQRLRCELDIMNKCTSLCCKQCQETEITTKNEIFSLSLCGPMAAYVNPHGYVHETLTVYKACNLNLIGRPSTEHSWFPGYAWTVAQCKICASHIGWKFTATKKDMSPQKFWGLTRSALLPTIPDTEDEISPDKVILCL
Protocol: Compound activity was monitored in a fluorescence polarization (FP) homogeneous assay using 1-[5-({2-[2-(2-{[2-(2,6-dioxopiperidin-3-yl)-1,3-dioxo-2,3-dihydro-1H-isoindol-4-yl]oxy}acetamido)ethoxy]ethyl}carbamoyl)pentyl]-3,3-dimethyl-2-[(1E,3E)-5-[(2E)-1,3,3-trimethyl-5-sulfo-2,3-dihydro-1H-indol-2-ylidene]penta-1,3-dien-1-yl]-3H-indol-1-ium-5-sulfonate as a fluorescent probe. Unless otherwise stated, all reagents were purchased from Sigma Aldrich. Enzymatic reactions were conducted in Perkin-Elmer Black 384 well ProxiPlate Plus (catalogue no. 6008269) in 10 sL total volume. Full length wild-type cereblon CRBN (80.0 nM, 10 sL) was incubated in assay buffer containing 20 mM HEPES (pH 8.0), […], 0.5 mM TCEP and 0.05% Tween 20 in the presence or absence of compound (300 nL). Inhibitors were stored as 10 mM DMSO stocks in an inert environment (low humidity, dark, low oxygen, room temperature) using the Storage Pod System.
Compounds and DMSO were dispensed using the Echo E5XX (Labcyte Inc. USA) to give concentrations from 300 to 0.937 or 3000 to 9.3 nM in a 12 data point curve. […] Following incubation at room temperature for 30 min, the assay was initiated by dispensing the probe to a final concentration of 5 nM (2.5 nL of a 20 μM stock) using the Echo E5XX. FP was measured after a period of 12 hours using a Pherastar plate reader (BMG Labtech, Germany) exciting at 590 nm and measuring the amount of parallel and perpendicular light at 675 nm. The FP signal was subsequently normalized to the no-compound control (i.e., DMSO). Analysis and IC50 values were derived using Dotmatics (Dotmatics UK) software.

[2] = treated 6 hours, read-out: Code, activity for GSPT1 degradation (DC50)
[3] = cereblon binding, bound, read-out: IC50 value
[4] = wild-type CRBN 80.0 nM, probe 5 nM, FP measured after 12 hours, read-out: rFP IC50
[5] = compounds with code A, read-out: DC50 value code

Chain of GSPT1 (P15170 whole entry): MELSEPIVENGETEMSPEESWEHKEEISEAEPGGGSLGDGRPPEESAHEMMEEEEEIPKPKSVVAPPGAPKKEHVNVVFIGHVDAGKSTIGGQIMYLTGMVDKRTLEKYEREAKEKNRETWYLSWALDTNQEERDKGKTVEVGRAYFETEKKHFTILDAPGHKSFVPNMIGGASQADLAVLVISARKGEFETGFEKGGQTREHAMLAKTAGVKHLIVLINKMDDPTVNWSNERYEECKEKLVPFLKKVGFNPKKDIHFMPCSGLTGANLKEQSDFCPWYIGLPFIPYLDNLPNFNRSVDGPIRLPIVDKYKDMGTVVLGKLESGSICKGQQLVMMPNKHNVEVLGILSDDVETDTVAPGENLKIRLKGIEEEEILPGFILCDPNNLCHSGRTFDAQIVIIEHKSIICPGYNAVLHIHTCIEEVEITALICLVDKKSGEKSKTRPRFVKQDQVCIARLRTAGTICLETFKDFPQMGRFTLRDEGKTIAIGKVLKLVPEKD
Chain of GSPT1 (Q96SW2 whole entry): as the sequence (Q96SW2 whole entry) above
Chain of GSPT1 (Q16531 whole entry partner): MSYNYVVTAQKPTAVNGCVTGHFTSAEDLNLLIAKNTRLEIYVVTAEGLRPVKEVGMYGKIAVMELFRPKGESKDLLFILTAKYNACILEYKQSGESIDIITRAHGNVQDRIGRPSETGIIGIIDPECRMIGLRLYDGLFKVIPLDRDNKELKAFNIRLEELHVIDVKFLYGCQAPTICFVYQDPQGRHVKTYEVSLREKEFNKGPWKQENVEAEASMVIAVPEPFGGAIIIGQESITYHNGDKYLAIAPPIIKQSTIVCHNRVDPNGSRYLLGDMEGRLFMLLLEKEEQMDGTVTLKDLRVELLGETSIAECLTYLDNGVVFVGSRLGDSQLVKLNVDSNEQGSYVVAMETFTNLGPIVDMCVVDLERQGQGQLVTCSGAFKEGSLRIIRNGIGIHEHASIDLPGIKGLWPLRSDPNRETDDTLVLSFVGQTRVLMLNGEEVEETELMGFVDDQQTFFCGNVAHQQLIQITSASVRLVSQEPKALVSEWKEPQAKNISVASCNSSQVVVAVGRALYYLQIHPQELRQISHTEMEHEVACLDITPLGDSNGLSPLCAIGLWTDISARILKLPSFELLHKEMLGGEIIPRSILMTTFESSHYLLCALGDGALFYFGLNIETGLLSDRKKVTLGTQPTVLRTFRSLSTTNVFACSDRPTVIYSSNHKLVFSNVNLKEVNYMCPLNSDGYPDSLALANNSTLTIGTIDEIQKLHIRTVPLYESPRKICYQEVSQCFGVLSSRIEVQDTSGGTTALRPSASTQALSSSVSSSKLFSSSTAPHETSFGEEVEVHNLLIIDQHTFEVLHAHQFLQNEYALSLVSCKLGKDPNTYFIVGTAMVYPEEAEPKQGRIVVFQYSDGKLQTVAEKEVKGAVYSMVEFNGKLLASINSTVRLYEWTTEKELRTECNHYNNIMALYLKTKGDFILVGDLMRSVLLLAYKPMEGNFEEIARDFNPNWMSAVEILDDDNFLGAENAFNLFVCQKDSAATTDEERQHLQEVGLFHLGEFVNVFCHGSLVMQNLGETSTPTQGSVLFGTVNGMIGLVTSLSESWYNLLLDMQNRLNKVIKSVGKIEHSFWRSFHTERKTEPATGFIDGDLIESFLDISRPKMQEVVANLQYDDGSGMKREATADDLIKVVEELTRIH

Compound	DC50 (GSPT1; [2])	IC50 [1, 3]	IC50 [1, 4]	DC50 (GSPT1; [5])
O=C1CCC(N2Cc3c(F)cc(COC(=O)Nc4ccc(-c5ccccn5)cc4)cc3C2=O)C(=O)N1 (stereo not drawn) [Compound 11, (2-(2,6-dioxopiperidin-3-yl)-7-fluoro-3-oxoisoindolin-5-yl)methyl (4-(pyridin-2-yl)phenyl)carbamate]	< 0.03 µM	< 0.6 µM	≤ 0.6 µM	< 0.03 µM
CC1CCCCN1c1ccc(NC(=O)OCc2cc(F)c3c(c2)C(=O)N(C2CCC(=O)NC2=O)C3)cn1 (stereo not drawn) [Compound 16, (2-(2,6-dioxopiperidin-3-yl)-7-fluoro-3-oxoisoindolin-5-yl)methyl (6-(2-methylpiperidin-1-yl)pyridin-3-yl)carbamate]	< 0.03 µM	< 0.6 µM	0.6 to 1.2 µM	< 0.03 µM
Cc1ccc(NC(=O)OCc2cc(Br)c3c(c2)C(=O)N(C2CCC(=O)NC2=O)C3)cc1Cl (stereo not drawn) [Compound 1, (7-bromo-2-(2,6-dioxopiperidin-3-yl)-3-oxoisoindolin-5-yl)methyl(3-chloro-4-methylphenyl)carbamate]	0.03 to 0.3 µM		> 1.9 µM	
COc1cc(COC(=O)Nc2cnc(-c3ccccc3)c(C)c2)cc2c1CN(C1CCC(=O)NC1=O)C2=O (stereo not drawn) [Compound 59, (2-(2,6-dioxopiperidin-3-yl)-7-methoxy-3-oxoisoindolin-5-yl)methyl(5-methyl-6-phenylpyridin-3-yl)carbamate]	< 0.03 µM	< 0.6 µM	≤ 0.6 µM	< 0.03 µM
O=C1CCC(N2Cc3c(F)cc(COC(=O)Nc4cc(Cl)cc(OC(F)F)c4)cc3C2=O)C(=O)N1 (stereo not drawn) [Compound 34, (2-(2,6-dioxopiperidin-3-yl)-7-fluoro-3-oxoisoindolin-5-yl)methyl(3-chloro-5-(difluoromethoxy)phenyl)carbamate]	0.03 to 0.3 µM		> 1.9 µM	
O=C1CCC(N2Cc3c(F)cc(COC(=O)Nc4cc(-c5ccccc5)ccn4)cc3C2=O)C(=O)N1 (stereo not drawn) [Compound 24, (2-(2,6-dioxopiperidin-3-yl)-7-fluoro-3-oxoisoindolin-5-yl)methyl(4-phenylpyridin-2-yl)carbamate]	0.03 to 0.3 µM		> 1.9 µM	
Cc1cc(C)cc(NC(=O)OCc2cc(F)c3c(c2)C(=O)N(C2CCC(=O)NC2=O)C3)c1 (stereo not drawn) [Compound 31, (2-(2,6-dioxopiperidin-3-yl)-7-fluoro-3-oxoisoindolin-5-yl)methyl (3,5-dimethylphenyl)carbamate]	0.03 to 0.3 µM		> 1.9 µM	
O=C1CCC(N2Cc3c(F)cc(COC(=O)Nc4cc(F)cc(OC(F)F)c4)cc3C2=O)C(=O)N1 (stereo not drawn) [Compound 6, (2-(2,6-dioxopiperidin-3-yl)-7-fluoro-3-oxoisoindolin-5-yl)methyl(3-(difluoromethoxy)-5-fluorophenyl)carbamate]	0.03 to 0.3 µM		> 1.9 µM	

The remaining lines, values ahead:

DC50 (GSPT1; [2])	IC50 [1, 3]	IC50 [1, 4]	DC50 (GSPT1; [5])	Compound
0.03 to 0.3 µM	< 0.6 µM	≤ 0.6 µM		COc1cc(COC(=O)Nc2cc(C)cc(C)c2)cc2c1CN(C1CCC(=O)NC1=O)C2=O (stereo not drawn) [Compound 52, (2-(2,6-dioxopiperidin-3-yl)-7-methoxy-3-oxoisoindolin-5-yl)methyl (3,5-dimethylphenyl)carbamate]
0.03 to 0.3 µM	< 0.6 µM	0.6 to 1.2 µM		COc1cc(COC(=O)Nc2ccc(F)c(OC(F)F)c2)cc2c1CN(C1CCC(=O)NC1=O)C2=O (stereo not drawn) [Compound 46, (2-(2,6-dioxopiperidin-3-yl)-7-methoxy-3-oxoisoindolin-5-yl)methyl(3-(difluoromethoxy)-4-fluorophenyl)carbamate]
< 0.03 µM	< 0.6 µM	0.6 to 1.2 µM	< 0.03 µM	COc1cc(COC(=O)Nc2ccc(-c3ccccc3)nc2)cc2c1CN(C1CCC(=O)NC1=O)C2=O (stereo not drawn) [Compound 45, (2-(2,6-dioxopiperidin-3-yl)-7-methoxy-3-oxoisoindolin-5-yl)methyl(6-phenylpyridin-3-yl)carbamate]
< 0.03 µM	< 0.6 µM	≤ 0.6 µM	< 0.03 µM	COc1cc(COC(=O)Nc2cccc(C(C)(C)C)c2)cc2c1CN(C1CCC(=O)NC1=O)C2=O (stereo not drawn) [Compound 54, (2-(2,6-dioxopiperidin-3-yl)-7-methoxy-3-oxoisoindolin-5-yl)methyl (3-(tert-butyl)phenyl)carbamate]
< 0.03 µM	< 0.6 µM	1.2 to 1.9 µM	< 0.03 µM	O=C1CCC(N2Cc3c(F)cc(COC(=O)Nc4cccc(OC5CC5)c4)cc3C2=O)C(=O)N1 (stereo not drawn) [Compound 21, (2-(2,6-dioxopiperidin-3-yl)-7-fluoro-3-oxoisoindolin-5-yl)methyl (3-cyclopropoxyphenyl)carbamate]
0.03 to 0.3 µM	< 0.6 µM	1.2 to 1.9 µM		COc1cc(COC(=O)Nc2ccc(C)c(OC(F)F)c2)cc2c1CN(C1CCC(=O)NC1=O)C2=O (stereo not drawn) [Compound 48, (2-(2,6-dioxopiperidin-3-yl)-7-methoxy-3-oxoisoindolin-5-yl)methyl (3-(difluoromethoxy)-4-methylphenyl) carbamate]
0.03 to 0.3 µM		> 1.9 µM		O=C1CCC(N2Cc3c(F)cc(COC(=O)Nc4cccc(OC(F)(F)F)c4)cc3C2=O)C(=O)N1 (stereo not drawn) [Compound 15, (2-(2,6-dioxopiperidin-3-yl)-7-fluoro-3-oxoisoindolin-5-yl)methyl (3-(trifluoromethoxy)phenyl)carbamate]
0.03 to 0.3 µM	< 0.6 µM	0.6 to 1.2 µM		COc1cc(COC(=O)Nc2ccc(F)c(Cl)c2)cc2c1CN(C1CCC(=O)NC1=O)C2=O (stereo not drawn) [Compound 51, (2-(2,6-dioxopiperidin-3-yl)-7-methoxy-3-oxoisoindolin-5-yl)methyl(3-chloro-4-fluorophenyl)carbamate]
> 0.3 µM	< 0.6 µM	≤ 0.6 µM		COc1cc(COC(=O)Nc2cccc(OC3CC3)c2)cc2c1CN(C1CCC(=O)NC1=O)C2=O (stereo not drawn) [Compound 58, (2-(2,6-dioxopiperidin-3-yl)-7-methoxy-3-oxoisoindolin-5-yl)methyl (3-cyclopropoxyphenyl)carbamate]
< 0.03 µM		> 1.9 µM	< 0.03 µM	Cc1ccc(NC(=O)OCc2cc(F)c3c(c2)C(=O)N(C2CCC(=O)NC2=O)C3)cc1OC(F)F (stereo not drawn) [Compound 35, (2-(2,6-dioxopiperidin-3-yl)-7-fluoro-3-oxoisoindolin-5-yl) methyl (3-(difluoromethoxy)-4-methylphenyl)carbamate]
< 0.03 µM		0.6 to 1.2 µM	< 0.03 µM	COc1cc(COC(=O)Nc2cccc(OC(F)(F)F)c2)cc2c1CN(C1CCC(=O)NC1=O)C2=O (stereo not drawn) [Compound 55, (2-(2,6-dioxopiperidin-3-yl)-7-methoxy-3-oxoisoindolin-5-yl) methyl (3-(trifluoromethoxy)phenyl)carbamate]
